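Exposure lasted 48 hours, with cells grown in 96-well plates and compounds tested at five concentrations. At the TGI there is no net growth.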
Tests used:
Experiment in all cases: growth of human tumour cells (NCI), 48 h
[1] = system: LOX IMVI melanoma
[2] = system: UACC-257 melanoma
[3] = system: U251 CNS
[4] = system: NCI-H522 lung
[5] = system: OVCAR-4 ovarian
[6] = system: RXF 393 renal
[7] = system: OVCAR-5 ovarian
[8] = system: T-47D breast
[9] = system: CCRF-CEM leukemia
[10] = system: SR leukemia

Compound | TGI [1] [µM] | TGI [2] [µM] | TGI [3] [µM] | TGI [4] [µM] | TGI [5] [µM] | TGI [6] [µM] | TGI [7] [µM] | TGI [8] [µM] | TGI [9] [µM] | TGI [10] [µM]
O=C(C1=C(C(=O)c2ccccc2)SC2(S1)C(C(=O)c1ccccc1)=C(C(=O)c1ccccc1)Sc1c2ssc1=O)c1ccccc1 | > 100 | > 100 | > 100 | 85.5 | > 100 | > 100 | 59.2 | > 100 | > 100 | > 100
Cc1cc2ccccc2n1CC(=O)NCC(C)C | > 100 | > 100 | > 100 | > 100 | > 100 | > 100 | > 100 | > 100 | > 100 | > 100
OC1CCCC1C(O)(C(F)(F)F)C(F)(F)F (stereo not given) | > 100 | > 100 | > 100 | > 100 | > 100 | > 100 | > 100 | > 100 | > 100 | > 100
Cn1c(=O)c2c(-c3ccccc3)onc2n(C)c1=O | 70.1 | > 100 | > 100 | > 100 | > 100 | > 100 | > 100 | > 100 | 77.9 | 75.2
CC(=O)N(CN1C(=O)CCC1C(=O)O)c1ccccc1 (stereo not given) | > 100 | > 100 | > 100 | > 100 | > 100 | > 100 | > 100 | > 100 | > 100 | > 100
CCc1nnc(-n2c(C)nc3cc(Cl)ccc3c2=O)s1 | > 100 | > 100 | > 100 | 75.4 | > 100 | > 100 | > 100 | > 100 | 56.7 | > 100

— PubChem BioAssay (NCI)
